Assay results: PubChem BioAssay AID1963984 (Molecular Pharmacology Branch, DTP, NCI, 2024)

Test system: 233499-124-R-J3-PDC spheroids with HUVEC/MSC, viability
Assay: Anticancer human tumor 233499-124-R-J3-PDC patient-derived colon adenocarcinoma cell line growth inhibition [PI3K]
Details: for IC50: curve of first compound; for viability, T/C: stronger effect = lower value
Summary of the method: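 Complex 3D spheroids (cancer cells + endothelial HUVEC + mesenchymal stem cells); drug pairs of targeted agent x inavolisib/alpelisib/duvelisib/copanlisib; half-log series from ~Cmax, max 10 microM if Cmax unknown; endpoint viability.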

[1] = second compound 0.0316 µM, first compound 0.0316 µM
[2] = second compound 0.0316 µM, first compound 0.1 µM
[3] = second compound 0.1 µM, first compound 0.0316 µM
[4] = second compound 0.1 µM, first compound 0.1 µM
[5] = second compound 0.316 µM, first compound 0.0316 µM
[6] = second compound 0.316 µM, first compound 0.1 µM
[7] = second compound 1 µM, first compound 0.0316 µM
[8] = second compound 1 µM, first compound 0.1 µM
[9] = second compound 3.16 µM, first compound 0.0316 µM
[10] = second compound 3.16 µM, first compound 0.1 µM
[11] = second compound 10 µM, first compound 0.0316 µM
[12] = second compound 10 µM, first compound 0.1 µM
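Also: spheroids exposed to agents for seven days before readout.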
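For viability, T/C in this document: percent viability relative to DMSO vehicle control taken as 100%.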

Question: How did the IC50 (second compound 0.0316 µM) turn out when `CC(=O)c1c(C)c2cnc(Nc3ccc(N4CCNCC4)cn3)nc2n(C2CCCC2)c1=O` + Cc1nc(NC(=O)N2CCCC2C(N)=O)sc1-c1ccnc(C(C)(C)C(F)(F)F)c1 was run?
Answer: > 100 nM

Question: And the IC50 (second compound 0.1 µM)?
Answer: > 100 nM

Question: What about the IC50 (second compound 0.316 µM) of the same molecule?
Answer: 65.9 nM

Question: What about the IC50 (second compound 1 µM) of the same molecule?
Answer: 58.2 nM

Question: What about the IC50 (second compound 3.16 µM) of the same molecule?
Answer: 42 nM

Question: And the IC50 (second compound 10 µM)?
Answer: < 0.316 nM

Question: And the viability, T/C (second compound 0.0316 µM, first compound 0.000316 µM)?
Answer: 98.6%

Question: And the viability, T/C (second compound 0.0316 µM, first compound 0.001 µM)?
Answer: 93.2%

Question: What about the viability, T/C (second compound 0.0316 µM, first compound 0.00316 µM) of the same molecule?
Answer: 65.5%

Question: And the viability, T/C (second compound 0.0316 µM, first compound 0.01 µM)?
Answer: 79.9%

Question: And the viability, T/C [1]?
Answer: 99.6%

Question: And the viability, T/C [2]?
Answer: 79.1%

Question: What about the viability, T/C (second compound 0.1 µM, first compound 0.000316 µM) of the same molecule?
Answer: 90.2%

Question: What about the viability, T/C (second compound 0.1 µM, first compound 0.001 µM) of the same molecule?
Answer: 90.2%

Question: And the viability, T/C (second compound 0.1 µM, first compound 0.00316 µM)?
Answer: 74.7%

Question: What about the viability, T/C (second compound 0.1 µM, first compound 0.01 µM) of the same molecule?
Answer: 98%

Question: And the viability, T/C [3]?
Answer: 83%

Question: What about the viability, T/C [4] of the same molecule?
Answer: 54.5%

Question: What about the viability, T/C (second compound 0.316 µM, first compound 0.000316 µM) of the same molecule?
Answer: 77.7%

Question: What about the viability, T/C (second compound 0.316 µM, first compound 0.001 µM) of the same molecule?
Answer: 89.7%

Question: And the viability, T/C (second compound 0.316 µM, first compound 0.00316 µM)?
Answer: 86.6%

Question: And the viability, T/C (second compound 0.316 µM, first compound 0.01 µM)?
Answer: 75%

Question: And the viability, T/C [5]?
Answer: 58.5%

Question: What about the viability, T/C [6] of the same molecule?
Answer: 45.3%

Question: What about the viability, T/C (second compound 1 µM, first compound 0.000316 µM) of the same molecule?
Answer: 79.5%

Question: And the viability, T/C (second compound 1 µM, first compound 0.001 µM)?
Answer: 67.9%

Question: And the viability, T/C (second compound 1 µM, first compound 0.00316 µM)?
Answer: 80.6%

Question: And the viability, T/C (second compound 1 µM, first compound 0.01 µM)?
Answer: 70%

Question: What about the viability, T/C [7] of the same molecule?
Answer: 74.9%

Question: And the viability, T/C [8]?
Answer: 28.3%

Question: What about the viability, T/C (second compound 3.16 µM, first compound 0.000316 µM) of the same molecule?
Answer: 53.3%

Question: What about the viability, T/C (second compound 3.16 µM, first compound 0.001 µM) of the same molecule?
Answer: 57.2%

Question: And the viability, T/C (second compound 3.16 µM, first compound 0.00316 µM)?
Answer: 76.4%

Question: And the viability, T/C (second compound 3.16 µM, first compound 0.01 µM)?
Answer: 37.5%

Question: And the viability, T/C [9]?
Answer: 61.8%

Question: What about the viability, T/C [10] of the same molecule?
Answer: 28.2%

Question: What about the viability, T/C (second compound 10 µM, first compound 0.000316 µM) of the same molecule?
Answer: 27.8%

Question: What about the viability, T/C (second compound 10 µM, first compound 0.001 µM) of the same molecule?
Answer: 26.9%

Question: What about the viability, T/C (second compound 10 µM, first compound 0.00316 µM) of the same molecule?
Answer: 27.5%

Question: And the viability, T/C (second compound 10 µM, first compound 0.01 µM)?
Answer: 34.6%

Question: What about the viability, T/C [11] of the same molecule?
Answer: 36.9%

Question: What about the viability, T/C [12] of the same molecule?
Answer: 28%

Question: Which results are given for `CNC(=O)c1ccc(N2C(=S)N(c3ccc(C#N)c(C(F)(F)F)c3)C(=O)C2(C)C)cc1F` + Cc1nc(NC(=O)N2CCCC2C(N)=O)sc1-c1ccnc(C(C)(C)C(F)(F)F)c1?
Answer: IC50 (second compound 0.0316 µM): 9800 nM; IC50 (second compound 0.1 µM): > 10000 nM; IC50 (second compound 0.316 µM): > 10000 nM; IC50 (second compound 1 µM): > 10000 nM; IC50 (second compound 3.16 µM): 4620 nM; IC50 (second compound 10 µM): < 31.6 nM; viability, T/C [1]: 101%; viability, T/C [2]: 107%; viability, T/C (second compound 0.0316 µM, first compound 0.316 µM): 80.8%; viability, T/C (second compound 0.0316 µM, first compound 1 µM): 100%; viability, T/C (second compound 0.0316 µM, first compound 3.16 µM): 102%; viability, T/C (second compound 0.0316 µM, first compound 10 µM): 49.1%; viability, T/C [3]: 111%; viability, T/C [4]: 72.8%; viability, T/C (second compound 0.1 µM, first compound 0.316 µM): 66%; viability, T/C (second compound 0.1 µM, first compound 1 µM): 84.1%; viability, T/C (second compound 0.1 µM, first compound 3.16 µM): 85.9%; viability, T/C (second compound 0.1 µM, first compound 10 µM): 73.2%; viability, T/C [5]: 95.8%; viability, T/C [6]: 100%; viability, T/C (second compound 0.316 µM, first compound 0.316 µM): 70.6%; viability, T/C (second compound 0.316 µM, first compound 1 µM): 88.3%; viability, T/C (second compound 0.316 µM, first compound 3.16 µM): 85.9%; viability, T/C (second compound 0.316 µM, first compound 10 µM): 56.2%; viability, T/C [7]: 105%; viability, T/C [8]: 70.3%; viability, T/C (second compound 1 µM, first compound 0.316 µM): 78.9%; viability, T/C (second compound 1 µM, first compound 1 µM): 61.5%; viability, T/C (second compound 1 µM, first compound 3.16 µM): 60.5%; viability, T/C (second compound 1 µM, first compound 10 µM): 51.3%; viability, T/C [9]: 59.1%; viability, T/C [10]: 51.1%; viability, T/C (second compound 3.16 µM, first compound 0.316 µM): 61.2%; viability, T/C (second compound 3.16 µM, first compound 1 µM): 54.5%; viability, T/C (second compound 3.16 µM, first compound 3.16 µM): 57%; viability, T/C (second compound 3.16 µM, first compound 10 µM): 37%; viability, T/C [11]: 24%; viability, T/C [12]: 34.6%; viability, T/C (second compound 10 µM, first compound 0.316 µM): 28.1%; viability, T/C (second compound 10 µM, first compound 1 µM): 31.8%; viability, T/C (second compound 10 µM, first compound 3.16 µM): 29.3%; viability, T/C (second compound 10 µM, first compound 10 µM): 19.6%

Question: Which IC50 (second compound 0.0316 µM) does the source give for `Cn1cnc2c(F)c(Nc3ccc(Br)cc3Cl)c(C(=O)NOCCO)cc21` + Cc1nc(NC(=O)N2CCCC2C(N)=O)sc1-c1ccnc(C(C)(C)C(F)(F)F)c1 here?
Answer: 198 nM

Question: And the IC50 (second compound 0.1 µM)?
Answer: 87.6 nM

Question: And the IC50 (second compound 0.316 µM)?
Answer: 87.9 nM

Question: And the IC50 (second compound 1 µM)?
Answer: 24.9 nM

Question: What about the IC50 (second compound 3.16 µM) of the same molecule?
Answer: < 9.49 nM

Question: What about the IC50 (second compound 10 µM) of the same molecule?
Answer: < 9.49 nM

Question: What about the viability, T/C (second compound 0.0316 µM, first compound 0.00949 µM) of the same molecule?
Answer: 88.1%

Question: And the viability, T/C (second compound 0.0316 µM, first compound 0.03 µM)?
Answer: 84.8%

Question: What about the viability, T/C (second compound 0.0316 µM, first compound 0.0949 µM) of the same molecule?
Answer: 57%

Question: What about the viability, T/C (second compound 0.0316 µM, first compound 0.3 µM) of the same molecule?
Answer: 47.3%

Question: What about the viability, T/C (second compound 0.0316 µM, first compound 0.949 µM) of the same molecule?
Answer: 52%

Question: What about the viability, T/C (second compound 0.0316 µM, first compound 3 µM) of the same molecule?
Answer: 37.3%

Question: And the viability, T/C (second compound 0.1 µM, first compound 0.00949 µM)?
Answer: 86.8%

Question: What about the viability, T/C (second compound 0.1 µM, first compound 0.03 µM) of the same molecule?
Answer: 68%

Question: And the viability, T/C (second compound 0.1 µM, first compound 0.0949 µM)?
Answer: 39%

Question: What about the viability, T/C (second compound 0.1 µM, first compound 0.3 µM) of the same molecule?
Answer: 45.9%

Question: And the viability, T/C (second compound 0.1 µM, first compound 0.949 µM)?
Answer: 28.4%

Question: And the viability, T/C (second compound 0.1 µM, first compound 3 µM)?
Answer: 20.2%

Question: What about the viability, T/C (second compound 0.316 µM, first compound 0.00949 µM) of the same molecule?
Answer: 64.2%

Question: What about the viability, T/C (second compound 0.316 µM, first compound 0.03 µM) of the same molecule?
Answer: 63.5%

Question: What about the viability, T/C (second compound 0.316 µM, first compound 0.0949 µM) of the same molecule?
Answer: 35.1%

Question: What about the viability, T/C (second compound 0.316 µM, first compound 0.3 µM) of the same molecule?
Answer: 57.2%

Question: And the viability, T/C (second compound 0.316 µM, first compound 0.949 µM)?
Answer: 30.3%

Question: What about the viability, T/C (second compound 0.316 µM, first compound 3 µM) of the same molecule?
Answer: 32.6%

Question: And the viability, T/C (second compound 1 µM, first compound 0.00949 µM)?
Answer: 88.5%

Question: And the viability, T/C (second compound 1 µM, first compound 0.03 µM)?
Answer: 39.5%

Question: What about the viability, T/C (second compound 1 µM, first compound 0.0949 µM) of the same molecule?
Answer: 36.1%

Question: What about the viability, T/C (second compound 1 µM, first compound 0.3 µM) of the same molecule?
Answer: 27.8%

Question: And the viability, T/C (second compound 1 µM, first compound 0.949 µM)?
Answer: 29.1%

Question: What about the viability, T/C (second compound 1 µM, first compound 3 µM) of the same molecule?
Answer: 19.6%

Question: And the viability, T/C (second compound 3.16 µM, first compound 0.00949 µM)?
Answer: 32.8%

Question: And the viability, T/C (second compound 3.16 µM, first compound 0.03 µM)?
Answer: 34%

Question: What about the viability, T/C (second compound 3.16 µM, first compound 0.0949 µM) of the same molecule?
Answer: 24.2%

Question: What about the viability, T/C (second compound 3.16 µM, first compound 0.3 µM) of the same molecule?
Answer: 11.5%

Question: And the viability, T/C (second compound 3.16 µM, first compound 0.949 µM)?
Answer: 15.7%

Question: And the viability, T/C (second compound 3.16 µM, first compound 3 µM)?
Answer: 8.72%

Question: And the viability, T/C (second compound 10 µM, first compound 0.00949 µM)?
Answer: 22.3%

Question: And the viability, T/C (second compound 10 µM, first compound 0.03 µM)?
Answer: 19.2%

Question: What about the viability, T/C (second compound 10 µM, first compound 0.0949 µM) of the same molecule?
Answer: 8.64%

Question: What about the viability, T/C (second compound 10 µM, first compound 0.3 µM) of the same molecule?
Answer: 5.65%

Question: What about the viability, T/C (second compound 10 µM, first compound 0.949 µM) of the same molecule?
Answer: 7.32%

Question: What about the viability, T/C (second compound 10 µM, first compound 3 µM) of the same molecule?
Answer: 7.06%
